{"source": "patent US20050069498A1", "about": "“Method for identifying metabotropic glutamate receptor agonists and potentiators” (priority 2003, published 2005)", "system": "VHipp norepinephrine (NE) release", "test": "Ketamine challenge: norepinephrine release in ventral hippocampus by in vivo microdialysis", "settings": "three ketamine doses vs vehicle control, 20 min intervals over 120 min, time course and AUC (FIG. 2, 3)", "data": [{"smiles": "CNC1(c2ccccc2Cl)CCCCC1=O", "note": "(centres unmarked) [Ketamine]", "values": [{"measurement": "VHipp norepinephrine (NE) release after ketamine challenge", "result": "dose dependent increase"}, {"measurement": "VHipp norepinephrine (NE) release after ketamine challenge", "setting": "listed as ketamine", "result": "greater area under the curve"}]}]}
